In patent US8791163B2 (McGill University, priority 2006, dated 2014):

Tests used:
Male Sprague-Dawley rats = experiment: Forced Swimming Test (FST); type: in vivo, rat; conditions: 5b 40 mg/kg i.p. 24, 5 and 1 hour prior to the test; vs vehicle
From the text: The forced swimming test (FST), Open field Test (OFT) and the in vivo electrophysiology recording were employed to evaluate the anti-depressant activity, the anti-anxiety activity and the sleep promoting properties of the compounds of the present invention [compounds of Formula (I)]. The following results were obtained using compound 5b. Male Sprague-Dawley rats (225-275 g, Charles-River Saint-Constant, Quebec, Canada) were used. The animals were housed at constant room temperature and humidity under a 12 h light/dark cycle. Food and water were available ad libitum. All procedures were approved by local institutional care and use committees and followed the guidelines released by the Canadian Institutes of Health Research.
The FST is typically a two-day procedure in which rats are immersed in a water containing cylinder (18 cm in diameter; 40 cm high; water 30 cm deep, 25-27° C.) from which they cannot escape. On the first day, the rats are forced to remain in the water bath for 15 minutes (pre-test). During this time, the rats usually struggle to escape, but eventually adopt a posture of immobility in which they emit only the minimal movements necessary to keep their heads above water. The actual test (5 min) occurs 24 h later. When re-immersed in the water, immobility is increased; antidepressant treatments reliably reduce immobility during the test. The FST is both sensitive and selective for clinically effective antidepressants, has been repeatedly validated and is currently the most popular model for detecting antidepressant activity due to its ease of use, reliability and extremely high predictive validity (Lucki, I. (1997) Behav. Pharmacol. 8(6-7): 523-32).
At the end of the pre-test, the rats are removed from the water bath, dried with towels and placed in a warm enclosure for 15 min. The rats are then returned to their respective home cages. […] Behavior is recorded continuously throughout the 5 min test by a video camera positioned directly above the water cylinder. […] The total time for each type of behavior represents the times that a specified behavior is detected. […]

[1] = target: T1, cloned human MT2 receptors (Homo sapiens, UniProt P49286); experiment: 2-[125I]iodomelatonin competition binding, human MT2 in NIH3T3 cells; conditions: human recombinant receptors expressed in NIH3T3 cells
T1 construct: expressed in transfected cells
T1 sequence (P49286 1-362): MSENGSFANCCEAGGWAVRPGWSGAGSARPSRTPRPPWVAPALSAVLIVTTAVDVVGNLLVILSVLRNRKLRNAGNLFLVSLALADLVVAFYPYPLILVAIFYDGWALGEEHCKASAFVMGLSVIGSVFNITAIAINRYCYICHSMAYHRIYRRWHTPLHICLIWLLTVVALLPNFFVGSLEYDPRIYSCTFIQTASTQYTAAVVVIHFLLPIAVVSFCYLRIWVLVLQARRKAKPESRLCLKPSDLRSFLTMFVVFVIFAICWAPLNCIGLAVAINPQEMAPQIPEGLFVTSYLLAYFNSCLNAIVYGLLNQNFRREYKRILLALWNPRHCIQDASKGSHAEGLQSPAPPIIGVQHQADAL

## COc1cccc(N(CCNC(C)=O)c2ccccc2)c1 [5b, N-{2-[(3-Methoxyphenyl)-phenylamino]ethyl}acetamide]
Male Sprague-Dawley rats
  immobility: significantly decreased
  tendency to climb or burst: increased the tendency to climb or burst
  tendency to swim: increased the tendency to swim
[1]
  higher affinity for the MT2 than for the MT1 subtype: ~100 fold
